In article PMC10855334, “Molecular and Functional Characterization of Three General Odorant-Binding Protein 2 Genes in Cydia pomonella (Lepidoptera: Tortricidae)” (International Journal of Molecular Sciences, 2024):

Key:
CpomGOBP2a = CpomGOBP2a (Cydia pomonella, UniProt J7G4I1); assay: Fluorescence competitive binding assay (1-NPN probe), recombinant CpomGOBP2a; details: for Ki: 2.0 µM protein and 2.0 µM 1-NPN, 50 mM Tris-HCl pH 7.4, competitor 2-20 µM, read-out: dissolution constants (Ki)
Description: (§1) The proteins were recombinantly expressed using an Escherichia coli expression system with an N-His tag. The complete coding regions lacking the signal peptide sequence of CpomGOBP2a, CpomGOBP2b, and CpomGOB2c were subcloned into the NdeI/EcoRI restricted and dephosphorylated pET-28b expression vector. The constructed plasmid was subsequently transformed into E. coli BL21 (DE3) competent cells for further expression. The size and purity of the target proteins were confirmed using sodium dodecyl sulfate-polyacrylamide gel electrophoresis (SDS-PAGE) and Western blot. The proteins were stored at −80 °C for subsequent fluorescence competitive binding experiments.
Fluorescence competitive binding assays were conducted on a Synergy4 (BioTek Instruments, Winooski, VT, USA) microplate reader using the F96 Black ELIAS Plate (Xinyou Biotechnology, Hangzhou, China). Probe 1-NPN and the tested ligands were dissolved in spectrophotometric-grade methanol to generate 1.0 mM stock solutions. The fluorescence probe 1-NPN was excited at 337 nm, and emission spectra were recorded between 390 and 490 nm. Initially, to test the binding constants of 1-NPN to the CpomGOBP2, a 2.0 µM solution of protein in 50 mM Tris-HCl (pH = 7.4) was titrated with 1 mM of 1-NPN to achieve various concentrations. Next, the competitive binding of each odorant (Table 1) was examined using 1-NPN as a fluorescent reporter and the odorant as a competitor. The concentrations of protein and 1-NPN were both 2.0 µM; the odorant was included after the protein and 1-NPN were added into the well of the ELIAS Plate for 2 min. The final concentrations of each competitor were 2, 4, 6, 8, 10, 12, 14, 16, 18, and 20 µM. After 2 min of odorant addition, the fluorescence intensity was measured and documented. The volume of mixed solution in each well was maintained at 250 µL. Each interaction was conducted in triplicate.

CpomGOBP2b = CpomGOBP2b (Cydia pomonella, UniProt J7GAV3); assay: Fluorescence competitive binding assay (1-NPN probe), recombinant CpomGOBP2b; details: 2.0 µM protein in 50 mM Tris-HCl pH 7.4 titrated with 1-NPN, read-out: dissociation constant with 1-NPN
Description: as §1
(§2) Fluorescence competitive binding assays were conducted on a Synergy4 (BioTek Instruments, Winooski, VT, USA) microplate reader using the F96 Black ELIAS Plate (Xinyou Biotechnology, Hangzhou, China). Probe 1-NPN and the tested ligands were dissolved in spectrophotometric-grade methanol to generate 1.0 mM stock solutions. The fluorescence probe 1-NPN was excited at 337 nm, and emission spectra were recorded between 390 and 490 nm. Initially, to test the binding constants of 1-NPN to the CpomGOBP2, a 2.0 µM solution of protein in 50 mM Tris-HCl (pH = 7.4) was titrated with 1 mM of 1-NPN to achieve various concentrations. […] After 2 min of odorant addition, the fluorescence intensity was measured and documented. […]

[1] = molecular target: CpomGOBP2c (Cydia pomonella); assay: Fluorescence competitive binding assay (1-NPN probe), recombinant CpomGOBP2c; details: 2.0 µM protein in 50 mM Tris-HCl pH 7.4 titrated with 1-NPN, read-out: dissociation constant with 1-NPN
Description: as §1, §2

Sequence of CpomGOBP2a (J7G4I1 entry or part of it): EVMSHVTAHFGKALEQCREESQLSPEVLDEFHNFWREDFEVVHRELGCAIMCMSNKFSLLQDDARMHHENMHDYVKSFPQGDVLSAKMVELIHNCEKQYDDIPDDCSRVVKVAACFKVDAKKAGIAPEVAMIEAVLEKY
Sequence of CpomGOBP2b (J7GAV3 entry or part of it): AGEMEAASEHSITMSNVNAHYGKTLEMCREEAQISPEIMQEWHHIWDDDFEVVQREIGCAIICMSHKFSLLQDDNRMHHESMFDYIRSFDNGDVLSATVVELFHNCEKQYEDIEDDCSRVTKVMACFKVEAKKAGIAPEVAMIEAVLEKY
Sequence of CpomGOBP2c (Cydia pomonella) (J7GAV3 entry or part of it): as above

Row | Ki (CpomGOBP2a) | Structure (SMILES) | Kd (CpomGOBP2a; 2.0 µM protein in 50 mM Tris-HCl pH 7.4 titrated with 1-NPN, read-out: dissociation constant with 1-NPN) | Kd (CpomGOBP2b) | Kd [1]
1 |  | c1ccc(Nc2cccc3ccccc23)cc1 [1-NPN] | 12.6 µM | 27.5 µM | 18.9 µM
2 | 8.6 µM | CCCCCCCC(=O)OCCCC [butyl octanoate] |  |  | 
3 | 22.7 µM | C/C=C/C=C/CCCCCCCO [codlemone] |  |  | 
4 | 9.15 µM | CCCCC/C=C\C=C\C(=O)OCC [ethyl (2E,4Z)-deca-2,4-dienoate] |  |  | 
5 | 22.9 µM | CC(=O)CC/C=C(\C)CCC=C(C)C [geranylacetone] |  |  | 
